The text below walks through data of patent US20230280220A1, “Benzimidazole Derivative Compounds and Uses Thereof” (Pfizer Inc., priority 2019, published 2023).

For orientation: IC50 means the point on the concentration scale where inhibition reaches its midpoint. The low end stands for greater potency, the high end for weaker potency.

For the experiment, the target named is ITK enzyme (ITK FL, N-Flag and C-His tagged) (Homo sapiens (Human), UniProt Q08881). In words: ITK enzyme assay (IL-2-inducible T-cell kinase activity). The format is biochemical. As to conditions: geometric mean of count n. The method, then:
IL-2-Inducible T-Cell Kinase (ITK) Activity, IC50 (nM)
ITK activity was determined by measuring the effect of a test compound in an ITK enzyme assay.
1.0 M HEPES Buffer pH 7.5 solution was prepared as follows: 238.3 g HEPES free acid (Sigma) and 800 mL of water were combined, and the mixture was stirred until complete dissolution. The pH was adjusted to 7.5 via titration with 5N NaOH and the volume adjusted to 1000 mL. The solution was filtered and sterilized.
ITK assay buffer was prepared as follows: 50 mL of HPLC-grade water was treated with 2 mL of 1.0 M HEPES Buffer, 500 μL of 2% Gelatin (Sigma), 1.0 mL of aqueous MgCl2 solution (1.0 M), and 1.0 mL of aqueous glutathione solution (0.5 M), and the solution was mixed. The solution was brought to 99 mL in a graduated cylinder by addition of water and sterilized through a 0.2 μm filter. 0.1 mL of Brij-35™ Surfact-Amps™ Detergent Solution (10% w/v aqueous solution, ThermoFisher) and 1.0 mL of ATP (Teknova, 100 mM) were added and the solution was mixed.
The resulting solution was stored on ice. 30 Minutes prior to use, the enzyme solution was removed from ice and equilibrated to RT by incubation in a RT water bath.
Preparation of 4×ITK substrate solution was as follows: 50 mL of ITK assay buffer was treated with 100 μL of BTK peptide (China Peptide Company, 2 mM stock solution in DMSO). The tube was capped, mixed by gently inverting the tube, and then stored on ice. 30 Minutes prior to use, the substrate solution was removed from ice and equilibrated to RT by incubation in a RT water bath.
At the time of assay, 7.5 μL of the 1.33×ITK enzyme solution was added to plate wells containing 0.1 μL of varying concentrations of test compound in DMSO. The plate was incubated 30 min at RT. The plate wells were each treated with 2.5 uL of the 4×ITK substrate solution and the plate was sealed (TopSeal™, Perkin Elmer). The plate was spun at 1000 rpm for 30 sec and then incubated for 60 min at RT. The seal was removed, and each well was treated with 10 μL of Stop/Detect Buffer (20 mM HEPES pH 7.5, 0.01% gelatin, 1 nM LANCE PT66 (Perkin Elmer), 16.5 μg/ml Surelight APC (Perkin Elmer), 10 mM EDTA, 250 mM NaCl). The plate was again covered and was spun at 1000 rpm for 30 seconds. The plate was allowed to incubate overnight at RT and in a closed carrier to reduce dehydration. The seal was removed, and the fluorescence was read with a plate reader with an excitation wavelength of […] and an emission wavelength of 615 nm.

Chain of ITK enzyme (ITK FL, N-Flag and C-His tagged) (Q08881 whole entry): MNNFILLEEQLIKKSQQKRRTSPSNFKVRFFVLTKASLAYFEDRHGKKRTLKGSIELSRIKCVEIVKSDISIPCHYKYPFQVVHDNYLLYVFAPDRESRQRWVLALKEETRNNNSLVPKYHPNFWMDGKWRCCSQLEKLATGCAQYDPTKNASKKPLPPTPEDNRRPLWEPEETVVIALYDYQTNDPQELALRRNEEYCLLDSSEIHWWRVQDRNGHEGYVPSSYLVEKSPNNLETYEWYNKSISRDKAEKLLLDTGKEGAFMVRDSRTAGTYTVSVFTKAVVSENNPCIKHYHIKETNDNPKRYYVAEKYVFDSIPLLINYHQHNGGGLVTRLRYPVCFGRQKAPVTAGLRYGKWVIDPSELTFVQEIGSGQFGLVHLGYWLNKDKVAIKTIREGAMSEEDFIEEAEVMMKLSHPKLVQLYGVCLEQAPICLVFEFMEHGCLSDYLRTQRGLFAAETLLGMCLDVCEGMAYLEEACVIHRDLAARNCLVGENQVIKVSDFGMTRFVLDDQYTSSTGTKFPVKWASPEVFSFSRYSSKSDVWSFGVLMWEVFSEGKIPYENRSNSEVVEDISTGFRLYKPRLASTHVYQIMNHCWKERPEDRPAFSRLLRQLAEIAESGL

`Cc1cc2[nH]c(-c3n[nH]c4c3C[C@@H]3C[C@]3(C)C4)nc2cc1N(C)C(=O)CC1CCOCC1` [Example 35, N-Methyl-N-(6-methyl-2-((4aS,5aR)-5a-methyl-1,4,4a,5,5a,6-hexahydrocyclopropa[f]indazol-3-yl)-1H-benzo[d]imidazol-5-yl)-2-(tetrahydro-2H-pyran-4-yl)acetamide] displayed an IC50 of 0.006 µM.
Take `C[C@@H](C(=O)N(C)c1cc(C#N)c2[nH]c(-c3n[nH]c4c3C[C@@H]3C[C@]3(C)C4)nc2c1)N1CCOCC1` [Example 38, (S)—N-(7-cyano-2-((4aS,5aR)-5a-methyl-1,4,4a,5,5a,6-hexahydrocyclopropa[f]indazol-3-yl)-1H-benzo[d]imidazol-5-yl)-N-methyl-2-morpholinopropanamide]: the IC50 is 0.007 µM.
Regarding `Cc1cc2[nH]c(-c3n[nH]c4c3C[C@@H]3C[C@]3(C)C4)nc2cc1N(C)C(=O)CN1C[C@@H](C)O[C@H](C)C1` [Example 32, 2-((2R,6R)-2,6-Dimethylmorpholino)-N-methyl-N-(6-methyl-2-((4aS,5aR)-5a-methyl-1,4,4a,5,5a,6-hexahydrocyclopropa[f]indazol-3-yl)-1H-benzo[d]imidazol-5-yl)acetamide], the IC50 turned out to be 0.016 µM. Against the preceding molecule, the IC50 is about 2.3-fold higher.
Consider `Cc1cc2[nH]c(-c3n[nH]c4c3C[C@@H]3C[C@]3(C)C4)nc2cc1N(C)C(=O)CN1CCO[C@H](CO)C1` [Example 26, 2-((S)-2-(hydroxymethyl)morpholino)-N-methyl-N-(6-methyl-2-((4aS,5aR)-5a-methyl-1,4,4a,5,5a,6-hexahydrocyclopropa[f]indazol-3-yl)-1H-benzo[d]imidazol-5-yl)acetamide], for which the midpoint of inhibition, the IC50, lay at 0.012 µM.
In turn, `Cc1cc2[nH]c(-c3n[nH]c4c3C[C@@H]3C[C@]3(C)C4)nc2cc1N(C)C(=O)CN1C[C@H](C)O[C@@H](C)C1` [Example 33, 2-((2S,6S)-2,6-Dimethylmorpholino)-N-methyl-N-(6-methyl-2-((4aS,5aR)-5a-methyl-1,4,4a,5,5a,6-hexahydrocyclopropa[f]indazol-3-yl)-1H-benzo[d]imidazol-5-yl)acetamide] yielded an IC50 of 0.011 µM. The IC50 values of the last two molecules are within 1.5-fold of each other.
The molecule `Cc1cc2[nH]c(-c3n[nH]c4c3C[C@@H]3C[C@]3(C)C4)nc2cc1N(C)C(=O)CN1CCOC(CO)C1` (stereo partly drawn) [Example 27, 2-(2-(Hydroxymethyl)morpholino)-N-methyl-N-(6-methyl-2-((4aS,5aR)-5a-methyl-1,4,4a,5,5a,6-hexahydrocyclopropa[f]indazol-3-yl)-1H-benzo[d]imidazol-5-yl)acetamide] gave an IC50 of 0.017 µM.
In the case of `CCN(C(=O)[C@H](C)N1CCOCC1)c1cc2nc(-c3n[nH]c4c3C[C@@H]3C[C@]3(C)C4)[nH]c2c(F)c1F` [Example 25, (S)—N-(6,7-difluoro-2-((4aS,5aR)-5a-methyl-1,4,4a,5,5a,6-hexahydrocyclopropa[f]indazol-3-yl)-1H-benzo[d]imidazol-5-yl)-N-ethyl-2-morpholinopropanamide] it was 0.013 µM.
With `C[C@@H](C(=O)N(C)c1cc2nc(-c3n[nH]c4c3C[C@@H]3C[C@]3(C)C4)[nH]c2cc1Br)N1CCOCC1` [Example 20, (S)—N-(6-bromo-2-((4aS,5aR)-5a-methyl-1,4,4a,5,5a,6-hexahydrocyclopropa[f]indazol-3-yl)-1H-benzo[d]imidazol-5-yl)-N-methyl-2-morpholinopropanamide], the IC50 was determined as 0.005 µM.
In turn, `CCN(C(=O)[C@H](C)N1CCOCC1)c1cc2nc(-c3n[nH]c4c3C[C@@H]3C[C@]3(C)C4)[nH]c2cc1C` [Example 6, (S)—N-ethyl-N-(6-methyl-2-((4aS,5aR)-5a-methyl-1,4,4a,5,5a,6-hexahydrocyclopropa[f]indazol-3-yl)-1H-benzo[d]imidazol-5-yl)-2-morpholinopropanamide] returned an IC50 of 0.011 µM.
Under `COc1cc2[nH]c(-c3n[nH]c4c3C[C@@H]3C[C@]3(C)C4)nc2cc1N(C)C(=O)[C@H](C)N1CCOCC1` [Example 19, (S)—N-(6-methoxy-2-((4aS,5aR)-5a-methyl-1,4,4a,5,5a,6-hexahydrocyclopropa[f]indazol-3-yl)-1H-benzo[d]imidazol-5-yl)-N-methyl-2-morpholinopropanamide] stands 0.009 µM.
Regarding `CN(C(=O)CC1CCOCC1)c1cc2nc(-c3n[nH]c4c3C[C@@H]3C[C@]3(C)C4)[nH]c2cc1C#N` [Example 54, N-(6-cyano-2-((4aS,5aR)-5a-methyl-1,4,4a,5,5a,6-hexahydrocyclopropa[f]indazol-3-yl)-1H-benzo[d]imidazol-5-yl)-N-methyl-2-(tetrahydro-2H-pyran-4-yl)acetamide], the IC50 was found to be 0.272 µM.
`Cc1cc2[nH]c(-c3n[nH]c4c3C[C@@H]3C[C@]3(C)C4)nc2cc1N(C)C(=O)CN1CCOC(C)(C)C1` [Example 29, 2-(2,2-Dimethylmorpholino)-N-methyl-N-(6-methyl-2-((4aS,5aR)-5a-methyl-1,4,4a,5,5a,6-hexahydrocyclopropa[f]indazol-3-yl)-1H-benzo[d]imidazol-5-yl)acetamide]: the IC50 amounted to 0.012 µM. Against the preceding molecule, the IC50 is about 23-fold lower.
For the molecule `C[C@@H](C(=O)N(C)c1ccc2[nH]c(-c3n[nH]c4c3C[C@@H]3C(F)(F)[C@]3(C)C4)nc2c1)N1CCOCC1` [Example 13, (S)—N-(2-((4aS,5aR)-5,5-difluoro-5a-methyl-1,4,4a,5,5a,6-hexahydrocyclopropa[f]indazol-3-yl)-1H-benzo[d]imidazol-5-yl)-N-methyl-2-morpholinopropanamide], the IC50 was determined as 0.001 µM.
Molecule `Cc1cc2[nH]c(-c3n[nH]c4c3C[C@@H]3C[C@]3(C)C4)nc2cc1N(C)C(=O)CN1CCOCC1` [Example 34, N-Methyl-N-(6-methyl-2-((4aS,5aR)-5a-methyl-1,4,4a,5,5a,6-hexahydrocyclopropa[f]indazol-3-yl)-1H-benzo[d]imidazol-5-yl)-2-morpholinoacetamide] returned a concentration for half-maximal inhibition (IC50) of 0.01 µM.
The molecule `C[C@@H](C(=O)N(C)c1cc2nc(-c3n[nH]c4c3C[C@@H]3C[C@]3(C)C4)[nH]c2c(F)c1F)N1CCOCC1` [Example 24, (S)—N-(6,7-difluoro-2-((4aS,5aR)-5a-methyl-1,4,4a,5,5a,6-hexahydrocyclopropa[f]indazol-3-yl)-1H-benzo[d]imidazol-5-yl)-N-methyl-2-morpholinopropanamide] yielded a 50% inhibitory concentration (IC50) of 0.008 µM.
`C[C@@H](C(=O)N(C)c1cc(C(F)(F)F)c2[nH]c(-c3n[nH]c4c3C[C@@H]3C[C@]3(C)C4)nc2c1)N1CCOCC1` [Example 41, (S)—N-methyl-N-(2-((4aS,5aR)-5a-methyl-1,4,4a,5,5a,6-hexahydrocyclopropa[f]indazol-3-yl)-7-(trifluoromethyl)-1H-benzo[d]imidazol-5-yl)-2-morpholinopropanamide] came in with an IC50 of 0.034 µM. Against the preceding molecule, the IC50 is about 4.2-fold higher.
In turn, `Cc1cc(N(C)C(=O)[C@H](C)N2CCOCC2)cc2nc(-c3n[nH]c4c3C[C@@H]3C(F)(F)[C@]3(C)C4)[nH]c12` [Example 51, (S)—N-(2-((4aS,5aR)-5,5-difluoro-5a-methyl-1,4,4a,5,5a,6-hexahydrocyclopropa[f]indazol-3-yl)-7-methyl-1H-benzo[d]imidazol-5-yl)-N-methyl-2-morpholinopropanamide] showed an IC50 of 0.002 µM.
The molecule `CCc1cc(N(C)C(=O)[C@H](C)N2CCOCC2)cc2nc(-c3n[nH]c4c3C[C@@H]3C[C@]3(C)C4)[nH]c12` [Example 44, (S)—N-(7-ethyl-2-((4aS,5aR)-5a-methyl-1,4,4a,5,5a,6-hexahydrocyclopropa[f]indazol-3-yl)-1H-benzo[d]imidazol-5-yl)-N-methyl-2-morpholinopropanamide] came in with an IC50 of 0.028 µM. Against the preceding molecule, the IC50 is about 14-fold higher.
`CN(C(=O)CC1CCOCC1)c1ccc2[nH]c(-c3n[nH]c4c3C[C@@H]3C[C@]3(C)C4)nc2c1` [Example 10, N-methyl-N-(2-((4aS,5aR)-5a-methyl-1,4,4a,5,5a,6-hexahydrocyclopropa[f]indazol-3-yl)-1H-benzo[d]imidazol-5-yl)-2-(tetrahydro-2H-pyran-4-yl)acetamide] had an IC50 of 0.007 µM. This IC50 lies about 4-fold lower than the previous one.
`Cc1cc2[nH]c(-c3n[nH]c4c3C[C@@H]3C[C@]3(C)C4)nc2cc1N(C)C(=O)CN1CCO[C@@H](C)C1` [Example 31, N-Methyl-N-(6-methyl-2-((4aS,5aR)-5a-methyl-1,4,4a,5,5a,6-hexahydrocyclopropa[f]indazol-3-yl)-1H-benzo[d]imidazol-5-yl)-2-((S)-2-methylmorpholino)acetamide] came in with a 50% inhibitory concentration (IC50) of 0.013 µM.
